These are literature values, as cited in US12201732B2, “Transdermal patches for hangover minimization and/or recocery, and/or sleep improvement” (GameChanger Patch Co., priority 2020, dated 2025).

The conditions of data set [1]: recent study.
For data set [2] the following is noted: oral supplementation.

For the molecule `N[C@@H](CS)C(=O)O` [L-cysteine], the effect on hangover result in data set [1] is given as “mitigate hangover effects”.
As to `N[C@@H](CCC(=O)N[C@@H](CS)C(=O)NCC(=O)O)C(=O)O` [glutathione], the “share metabolized by the human stomach in the first pass” value in data set [2] is recorded as at least 90%.
